Where a name gives a salt, the structure may show the parent alone.
Experiment: solubility by stirred slurry, salt concentration in solution by HPLC
Format: physicochemical
Details: 25 °C, thermodynamic from solid, after 8 days stirring at 25 degC, slurry in "a volume of solvent" (solvent not named)
Protocol: The solubility of a sample of the hydrochloride salt of the invention was determined by adding an amount of it to a volume of solvent with stirring so as to form a slurry. The slurry was stirred at 25 degC. The stirred slurry was tested at regular intervals (i.e. 1, 3, 6 and 8 days) until the concentration of the salt in solution was substantially constant. HPLC was used to determine the salt concentration in solution.

Which solubility at 8 days does the source give for COCC1C2CCC(CC1c1ccc(Cl)c(Cl)c1)N2 [salt of the invention, hydrochloride salt of (1R,2R,3S,5S)-3-(3,4-dichlorophenyl)-2-[(methyloxy)methyl]-8-azabicyclo[3.2.1]octane] here?
The solubility at 8 days was 438 mg/mL.

— patent US8263611B2, “Hydrochloride salt of an azabicyclo[3.2.1]octane derivative” (Neurosearch A/S, priority 2007, dated 2012)
